Data set [1] relates to 661W cells expressing CNGA3 plus CNGB3 F525N. The note with it: 24 h. As for the experimental part: (§1) The mouse photoreceptor 661W cell line used in this study was generously provided by Dr. Al-Ubaidi (University of Oklahoma Health Sciences Center, Oklahoma City, OK). The 661W cells were routinely maintained in Dulbecco’s modified Eagle’s medium (Gibco, Carlsbad, CA), supplemented with 10% fetal bovine serum (Gemini Bioproducts, Sacramento, CA) and 1% penicillin/streptomycin (Gibco), at 37 °C in a humidified incubator with 5% CO2; cells were subcultured every 3–5 days. The 661W cells were transfected with pOPRSVI plasmids encoding human cone CNG channel subunits using Lipofectamine™ 2000 and OptiMEM (Life Technologies, Carlsbad, CA) according to the manufacturer’s protocol for cells in suspension. A reporter plasmid—a green fluorescent protein-expressing vector (pQBI25-fC2, Wako Pure Chemical Industries, Ltd., Japan) using a constitutive CMV promoter—was transfected under the same conditions to assess transfection efficiency. […] In addition, the pOPRSVI plasmid was transfected alone as a negative control. The amounts of each vector were as follows (µg/10 cm^2 culture surface): 2 FLAG- or GFP-CNGA3 plus 2 FLAG-CNGB3 (WT, T383fsX or F525N); 4 GFP; or 4 pOPRSVI.
(§2) For most experiments, the LDH Cytotoxicity Detection Kit (Roche Applied Science) was used according to the manufacturer’s protocol (see also [37]). Briefly, cultured 661W cells were transfected with the desired plasmid constructs as described above and then plated in 96-well tissue culture plates at a density of approximately 8×10^3 cells/well. Forty-eight hours after transfection, cells were treated with various concentrations of CPT-cGMP and/or CPT-cAMP (Sigma-Aldrich) alone or together with L-cis-diltiazem (Enzo Life Sciences, Inc., Farmingdale, NY) in Dulbecco’s modified Eagle’s medium supplemented with 1% fetal bovine serum for 24 h at 37 °C. Following treatment, half of the culture medium was transferred to another 96-well plate and the LDH released into the culture medium was measured to assess the number of damaged/dead cells. Cells in the original plate were then lysed and the total amount of cellular LDH was assessed. The percentage cytotoxicity was then calculated from the ratio of LDH concentration in the medium/cells, and was normalized to the percentage cytotoxicity in untreated cells transfected with control pOPRSVI plasmid only.

In data set [2] the test system is 661W cells expressing CNGA3 plus CNGB3 T383fsX. The note with it: for relative cytotoxicity (LDH release, normalized to untreated vector-only control): 24 h. As for the experimental part: as §1, §2
(Release of lactate dehydrogenase indicates damage to the cell membrane.)

Data set [3] has as its system 661W cells expressing CNG channels with the F525N mutation. Description: LIVE/DEAD Viability/Cytotoxicity Kit staining, cells expressing F525N. It counts as cell-based, mouse. The note with it: 0.1 µM CPT-cGMP, 24 h; compared to WT-expressing or untreated F525N-expressing cells. Here is the method: The viability of 661W cells transfected with WT or mutant CNG channels was also assessed using the LIVE⁄DEAD® Viability⁄Cytotoxicity Kit (Life Technologies) according to the manufacturer’s protocol. Briefly, cells were transfected under the conditions described above and plated into 4-well multi-chamber Lab-Tek glass slides (Nalge Nunc International, Rochester, NY). At the end of cyclic nucleotide treatment, cells were washed with PBS three times and stained with 2 μM calcein AM and 4 μM ethidium homodimer-1 solution at room temperature for 30 min. Fluorescence microscopy was then performed to visualize the live and dead cells. Imaging of cells was performed at the Washington State University Franceschi Microscopy and Imaging Center. Images were obtained using a 10× objective on an Axiovert 200M inverted microscope equipped with a Zeiss LSM 510 confocal laser-scanning system and a krypton-argon laser. Fluorescence was measured using an excitation wavelength of 488 nm, and a 522 DF 32 emission filter for green fluorescence and 635 DF 32 emission filter for red fluorescence.

Where [4] appears, read: 10 µM CPT-cAMP combined with 0.1 µM CPT-cGMP.

Each structure is given as a SMILES string. Like-named read-outs stand apart in the source and are kept apart here.

In the case of `Nc1ncnc2c1nc(Sc1ccc(Cl)cc1)n2[C@@H]1O[C@@H]2COP(=O)(O)O[C@H]2[C@H]1O` [CPT-cAMP, CPT-adenosine 3′,5′-cyclic monophosphate], the “relative cytotoxicity (LDH release, normalized to untreated vector-only control)” value was found to be 1.31±0.06 in data set [1] (1 µM CPT-cAMP coapplied with 0.1 µM CPT-cGMP), 1.67±0.08 in data set [1] (setting [4]) and 1.30±0.05 in data set [2] (setting [4]). The “effect on relative cytotoxicity compared to CPT-cGMP treatment alone” value in data set [2] (various concentrations of CPT-cAMP coapplied with 0.1 µM CPT-cGMP) was “unaltered”.

As to `Nc1nc2c(nc(Sc3ccc(Cl)cc3)n2[C@@H]2O[C@@H]3COP(=O)(O)O[C@H]3[C@H]2O)c(=O)[nH]1` [CPT-cGMP, 8-(4-chlorophenylthio) guanosine 3′,5′-cyclic monophosphate], the “relative cytotoxicity (LDH release, normalized to untreated vector-only control)” value in data set [1] (0.1 µM CPT-cGMP alone) amounted to 1.59±0.05; in data set [2] (0.1 µM CPT-cGMP) it was 1.26±0.05. In data set [3], the “damaged/dead and intact/viable cells (calcein AM / ethidium homodimer-1 fluorescence)” value is “more damaged/dead cells (red fluorescence) and less intact/viable cells”.

The values above are taken from PMC3692405, “Disease-associated mutations in CNGB3 promote cytotoxicity in photoreceptor-derived cells” (Molecular Vision, 2013).
